Experimental data as given in patent US12590062B2, “PD-1/PD-L1 inhibitors” (Gilead Sciences, Inc., priority 2017, dated 2026).

Assays:
[1] = biological target: T1, PD-1/PD-L1 interaction (Homo sapiens, UniProt Q9NZQ7); assay: PD-1/PD-L1 NFAT reporter co-culture assay; assay type: cell-based; details: Jurkat PD-1 NFAT-luciferase cells co-cultured with aAPC-PD-L1 CHO cells, 6 hrs at 37° C.; read-out: EC50 NFAT Luciferase
T1 construct: expressed in transfected cells; host or cells: CHO cells (aAPC-PD-L1) co-cultured with Jurkat cells overexpressing PD-1 and an NFAT-luciferase reporter
Method in brief: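 Jurkat cells overexpressing PD-1 with NFAT-luciferase mixed with compounds and plated onto CHO aAPCs expressing anti-CD3 and PD-L1, RPMI with 2% FBS. Co-culture 6 h at 37 °C; luminescence read with ONE-Glo. EC50 from four-parameter fit.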

[2] = biological target: PD-1/PD-L1 (Homo sapiens, UniProt Q9NZQ7); assay: PD-1/PD-L1 biochemical protein-protein interaction assay (ALPHA); assay type: binding; details: 0.3 nM His tagged PD-L1, 2.5 nM biotinylated Fc-PD-1, 60 minutes at 25° C., read-out: IC50 PD-L1-PD-1 Alpha IC50-mono PD-L1-fcP-D1
Method in brief: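 Compounds are tested for blocking the PD-1/PD-L1 extracellular-domain interaction using an ALPHA bead assay, in which inhibition lowers the luminescent signal. Reactions run 60 min at 25° C with 0.3 nM His-PD-L1 and 2.5 nM biotinylated Fc-PD-1. IC50 values come from four-parameter fits.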

Chain of PD-1/PD-L1 (Q9NZQ7 19-238 limits assumed): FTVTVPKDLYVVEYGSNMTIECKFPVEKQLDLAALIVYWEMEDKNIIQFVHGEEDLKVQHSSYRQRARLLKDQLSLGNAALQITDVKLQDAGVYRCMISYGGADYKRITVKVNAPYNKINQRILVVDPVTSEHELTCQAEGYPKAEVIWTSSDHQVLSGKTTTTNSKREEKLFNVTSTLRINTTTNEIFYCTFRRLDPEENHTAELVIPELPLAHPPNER
T1 sequence (Q9NZQ7 19-290): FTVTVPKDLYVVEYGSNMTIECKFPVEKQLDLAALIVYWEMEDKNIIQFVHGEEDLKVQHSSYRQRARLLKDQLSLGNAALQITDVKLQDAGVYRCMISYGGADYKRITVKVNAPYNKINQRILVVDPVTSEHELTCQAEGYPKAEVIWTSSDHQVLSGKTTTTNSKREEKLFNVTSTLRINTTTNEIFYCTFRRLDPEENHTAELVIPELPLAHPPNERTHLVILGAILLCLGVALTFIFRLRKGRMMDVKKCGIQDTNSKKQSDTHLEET

| Structure (SMILES) | EC50 [1] | IC50 [2] |
| --- | --- | --- |
| CCOC(=O)CNCc1cc(Cl)c(O[C@H]2CCc3c(-c4cccc5c4CC[C@@H]5Oc4nc(OC)c(CNCC(=O)OCC)cc4Cl)cccc32)nc1OC [Example 287, Diethyl 2,2′-((((((1S,1′S)-2,2′,3,3′-tetrahydro-1H,1′H-[4,4′-biindene]-1,1′-diyl)bis(oxy))bis(5-chloro-2-methoxypyridine-6,3-diyl))bis(methylene))bis(azanediyl))diacetate] | 958 nM | 457 nM |
| CC(CO)(NCc1cc(Cl)c(O[C@H]2CCc3c(-c4cccc5c4CC[C@@H]5Oc4nc(OCc5cncc(S(C)(=O)=O)c5)c(CNC(C)(CO)C(=O)O)cc4Cl)cccc32)nc1OCc1cncc(S(C)(=O)=O)c1)C(=O)O (some centres unmarked) [Example 298] | 21 nM | 0.051 nM |
| Cc1c(COc2cc(OCc3cncc(C#N)c3)c(CNC[C@@H](O)CC(=O)O)cc2Cl)cccc1-c1cccc(-c2ccc(OCCNC[C@@H](O)CC(=O)O)c(F)c2)c1C [Example 314] | 188 nM | 0.064 nM |
| Cc1c(COc2cc(OCc3cncc(C#N)c3)c(CNC[C@@H](O)CC(=O)O)cc2Cl)cccc1-c1cccc(-c2ccc(OCCNC[C@@H](O)CC(=O)O)cc2Cl)c1C [Example 315, (S)-4-((4-((4″-(2-(((S)-3-carboxy-2-hydroxypropyl)amino)ethoxy)-2″-chloro-2,2′-dimethyl-[1,1′:3′,1″-terphenyl]-3-yl)methoxy)-5-chloro-2-((5-cyanopyridin-3-yl)methoxy)benzyl)amino)-3-hydroxybutanoic acid] | 1250 nM | 0.242 nM |
| Cc1c(-c2ccc(OCCNC[C@@H](O)CC(=O)O)cc2)cccc1-c1cccc2c1CC[C@@H]2Oc1nc(OCCCC#N)c(CNC[C@@H](O)CC(=O)O)cc1Br [Example 327, (S)-4-((2-((3′-((S)-1-((3-bromo-5-((((S)-3-carboxy-2-hydroxypropyl)amino)methyl)-6-(3-cyanopropoxy)pyridin-2-yl)oxy)-2,3-dihydro-1H-inden-4-yl)-2′-methyl-[1,1′-biphenyl]-4-yl)oxy)ethyl)amino)-3-hydroxybutanoic acid] | 114 nM | 0.051 nM |
| Cc1c(COc2cc(OCc3cncc(C#N)c3)c(CNC[C@@H](O)CC(=O)O)cc2Cl)cccc1-c1cccc(-c2ccc3ncnc(NCCO)c3c2)c1C [Example 337, (S)-4-((5-chloro-2-((5-cyanopyridin-3-yl)methoxy)-4-((3′-(4-((2-hydroxyethyl)amino)quinazolin-6-yl)-2,2′-dimethyl-[1,1′-biphenyl]-3-yl)methoxy)benzyl)amino)-3-hydroxybutanoic acid] | 1920 nM | 0.287 nM |
| Cc1c(COc2cc(OCc3cncc(C#N)c3)c(CNC[C@@H](O)CC(=O)O)cc2Cl)cccc1-c1cccc(-c2ccc(N3CCNCC3)cc2)c1C [Example 339, (S)-4-((5-chloro-2-((5-cyanopyridin-3-yl)methoxy)-4-((2,2′-dimethyl-4″-(piperazin-1-yl)-[1,1′:3′,1″-terphenyl]-3-yl)methoxy)benzyl)amino)-3-hydroxybutanoic acid] | 2220 nM | 1.3 nM |

Next, values leading:

| EC50 [1] | IC50 [2] | Structure (SMILES) |
| --- | --- | --- |
| 712 nM | 0.148 nM | COc1cc(OCc2cccc(-c3cccc(COc4cc(OCc5cncc(C#N)c5)c(CNC[C@@H](O)CC(=O)O)cc4Cl)c3C)c2C)c(Cl)cc1CNCC(=O)NS(C)(=O)=O [Example 355, (S)-4-((5-chloro-4-((3′-((2-chloro-5-methoxy-4-(((2-(methylsulfonamido)-2-oxoethyl)amino)methyl)phenoxy)methyl)-2,2′-dimethyl-[1,1′-biphenyl]-3-yl)methoxy)-2-((5-cyanopyridin-3-yl)methoxy)benzyl)amino)-3-hydroxybutanoic acid] |
| 2840 nM | 2.33 nM | Cc1c(COc2cc(OCc3cncc(C#N)c3)c(CN(C)C)cc2Cl)cccc1-c1cccc(-c2ccc(CN(C)C)s2)c1C [Example 366, 5-((4-chloro-2-((dimethylamino)methyl)-5-((3′-(5-((dimethylamino)methyl)thiophen-2-yl)-2,2′-dimethyl-[1,1′-biphenyl]-3-yl)methoxy)phenoxy)methyl)nicotinonitrile] |
| 770 nM | 0.346 nM | Cc1c(COc2cc(OCc3cncc(C#N)c3)c(CN[C@@](C)(CO)C(=O)O)cc2Cl)cccc1-c1cccc(-c2ccc3c(c2)OCC3N(C)C)c1C (stereo partly drawn) [Example 376, (2S)-2-((5-chloro-2-((5-cyanopyridin-3-yl)methoxy)-4-((3′-(3-(dimethylamino)-2,3-dihydrobenzofuran-6-yl)-2,2′-dimethyl-[1,1′-biphenyl]-3-yl)methoxy)benzyl)amino)-3-hydroxy-2-methylpropanoic acid] |
| 191 nM | 0.127 nM | Cc1c(COc2cc(OCc3cncc(C#N)c3)c(CN[C@@](C)(CO)C(=O)O)cc2Cl)cccc1-c1cccc(-c2ccc3c(c2)CC[C@H]3N(C)C)c1C [Example 378, (S)-2-((5-chloro-2-((5-cyanopyridin-3-yl)methoxy)-4-((3′-((R)-1-(dimethylamino)-2,3-dihydro-1H-inden-5-yl)-2,2′-dimethyl-[1,1′-biphenyl]-3-yl)methoxy)benzyl)amino)-3-hydroxy-2-methylpropanoic acid] |
| 84 nM | 0.051 nM | Cc1c(COc2nc(OCc3cncc(C#N)c3)c(CNC[C@@H](O)CC(=O)O)cc2Br)cccc1-c1cccc(-c2ccc(OCCNC[C@@H](O)CC(=O)O)cc2)c1C [Example 385, (S)-4-((2-((3″-(((3-bromo-5-((((S)-3-carboxy-2-hydroxypropyl)amino)methyl)-6-((5-cyanopyridin-3-yl)methoxy)pyridin-2-yl)oxy)methyl)-2′,2″-dimethyl-[1,1′:3′,1″-terphenyl]-4-yl)oxy)ethyl)amino)-3-hydroxybutanoic acid] |
| 868 nM | 0.302 nM | Cc1c(COc2cc(OCc3cncc(C#N)c3)c(CNC[C@@H](O)CC(=O)O)cc2Cl)cccc1-c1cccc(-n2cc(CN)nn2)c1C [Example 386, (S)-4-((4-((3′-(4-(aminomethyl)-1H-1,2,3-triazol-1-yl)-2,2′-dimethyl-[1,1′-biphenyl]-3-yl)methoxy)-5-chloro-2-((5-cyanopyridin-3-yl)methoxy)benzyl)amino)-3-hydroxybutanoic acid] |
| 362 nM | 0.051 nM | Cc1c(COc2cc(OCc3cncc(C#N)c3)c(CNC[C@@H](O)CC(=O)O)cc2Cl)cccc1-c1cccc(-c2cn(CCCNC[C@@H](O)CC(=O)O)nn2)c1C [Example 387, (S)-4-((3-(4-(3′-((4-((((S)-3-carboxy-2-hydroxypropyl)amino)methyl)-2-chloro-5-((5-cyanopyridin-3-yl)methoxy)phenoxy)methyl)-2,2′-dimethyl-[1,1′-biphenyl]-3-yl)-1H-1,2,3-triazol-1-yl)propyl)amino)-3-hydroxybutanoic acid] |
| 709 nM | 0.064 nM | Cc1c(COc2cc(OCc3cncc(C#N)c3)c(CNC[C@@H](O)CC(=O)O)cc2Cl)cccc1-c1cccc(-c2ccn3cc(CNC[C@@H](O)CC(=O)O)nc3c2)c1C [Example 397, (S)-4-(((7-(3′-((4-((((S)-3-carboxy-2-hydroxypropyl)amino)methyl)-2-chloro-5-((5-cyanopyridin-3-yl)methoxy)phenoxy)methyl)-2,2′-dimethyl-[1,1′-biphenyl]-3-yl)imidazo[1,2-a]pyridin-2-yl)methyl)amino)-3-hydroxybutanoic acid] |
| 112 nM | 0.146 nM | COc1cc(OCc2cccc(-c3cccc(COc4nc(OC)c(CNC5(C(=O)O)CCC5)cc4Cl)c3C)c2C)c(Cl)cc1CNC1(C(=O)O)CCC1 [Example 486] |
